Values quoted from earlier work as cited in patent publication US12691071B2 (SHANGHAI YONSUN BIOTECHNOLOGY CO., LTD., priority 2021, dated 2026).

## COC[C@@H](NC(C)=O)C(=O)NCc1ccccc1 [Lacosamide, (2R)-2-acetamido-N-benzyl-3-methoxypropanamide]
Acetonitrile or ethanol
  solubility in acetonitrile or ethanol: slightly soluble
Methanol or acetone
  solubility in methanol or acetone: easily soluble
